Some test systems named below: IGROV-1; UACC-257; SW-620; K562; CCRF-CEM; HCT-116; ACHN; RPMI-8226; RXF 393; SNB-78; SN12C; HCC 2998; SNB-75; NCI-H226; SF-295; HCT-15; NCI/ADR-RES; MDA-MB-231; BT-549; HOP-92.
Experiment in all cases: DTP human tumour cell line panel, 48 h

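Growth conditions: 96-well plates. Treatment: test compound, 48 hours, 5 concentrations. Analysis: linear interpolation between bracketing concentrations; unreached endpoints set to highest concentration. GI50: concentration for 50% inhibition of growth.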 Active and inactive are the calls of the source. Rule as the data show it: active = GI50 up to about 1.1 µM and inactive = higher.

For the molecule `COC(=O)/C(C#N)=C1\CCC(O)N1` (stereo not given), the GI50 in the assay on IGROV-1, in the assay with UACC-257, with SW-620, with K562, in the assay on CCRF-CEM and in the assay on HCT-116 was > 100 µM (inactive) each time. The GI50 with ACHN, with RPMI-8226, in the assay on RXF 393, in the assay with SNB-78, with SN12C and in the assay with HCC 2998 was > 100 µM (inactive) each time. In addition, the GI50 in the assay on SNB-75, in the assay on NCI-H226 and in the assay with SF-295 was > 100 µM (inactive) throughout.
In the case of `Cc1nnc2n1N=C(CC(=O)c1ccc(O)cc1O)CN2N`, the GI50 in the assay on IGROV-1 is > 100 µM (inactive); in the assay on UACC-257 it was > 100 µM (inactive); in the assay with SW-620, 14.9 µM (inactive); with K562 it was > 100 µM (inactive); in the assay with CCRF-CEM, > 100 µM (inactive); in the assay on HCT-116, 55.7 µM (inactive). In addition, the GI50 in the assay with ACHN is > 100 µM (inactive); in the assay with RXF 393 it was > 100 µM (inactive); in the assay on SNB-78, > 100 µM (inactive); in the assay on SN12C it was > 100 µM (inactive); in the assay with HCC 2998, > 100 µM (inactive); with HCT-15, 15.5 µM. Also, in the assay with SF-295, the GI50 is > 100 µM (inactive).
Take `N=C(N)Cn1cnc2ccccc21`: the GI50 in the assay on IGROV-1, with UACC-257, with SW-620, in the assay with K562, with CCRF-CEM and with ACHN was > 100 µM (inactive) in each case. Further, the GI50 in the assay with RPMI-8226 was > 100 µM (inactive); in the assay with RXF 393 it was > 100 µM (inactive); in the assay on SNB-78, > 100 µM (inactive); with SN12C, > 100 µM (inactive); with HCC 2998 it was > 100 µM (inactive); in the assay with HCT-15, more than 100 µM. Moreover, the GI50 with SNB-75, in the assay with NCI-H226 and in the assay with SF-295 was > 100 µM (inactive) throughout.
Take `CN(C)/C=N/S(=O)(=O)c1nn2c(C=O)c(-c3ccc(-c4ccccc4)cc3)nc2s1`: the GI50 was 1.24 µM (inactive) with IGROV-1; 8.57 µM (inactive) in the assay with NCI/ADR-RES; 2.97 µM (inactive) in the assay with UACC-257; 0.724 µM (active) with SW-620; 0.316 µM (active) in the assay on K562; 2.99 µM (inactive) with MDA-MB-231. Further, the GI50 is 0.145 µM (active) in the assay on CCRF-CEM; 1 µM (active) in the assay on HCT-116; 1.57 µM (inactive) with ACHN; 0.83 µM (active) in the assay with RPMI-8226; 1.71 µM (inactive) in the assay with RXF 393; 0.83 µM (active) in the assay with BT-549. Further, the GI50 with SN12C is 1.97 µM (inactive); with HCC 2998 it was 6 µM (inactive); with HCT-15, 2.26 µM; with HOP-92, 2.65 µM (inactive); with SNB-75 it was 4.12 µM (inactive); in the assay with NCI-H226, 13.3 µM (inactive). The GI50 in the assay on SF-295 is 14.4 µM (inactive).
As to `COC(=O)c1c(O)ccc2c1c1c(n2Cc2ccccc2)C(=O)c2ccccc2C1=O`, the GI50 in the assay with IGROV-1 is 12.6 µM (inactive); in the assay on NCI/ADR-RES it was 12.6 µM (inactive); in the assay on UACC-257, 17.6 µM (inactive); in the assay on SW-620, 19.2 µM (inactive); with K562 it was 11.8 µM (inactive); in the assay with MDA-MB-231, 16.2 µM (inactive). The GI50 with CCRF-CEM was 15 µM (inactive); with HCT-116, 14.2 µM (inactive); in the assay on ACHN, 12.2 µM (inactive); in the assay with RPMI-8226, 8.55 µM (inactive); in the assay on RXF 393, 14.1 µM (inactive); with BT-549, 16.6 µM (inactive). The GI50 was 13.9 µM (inactive) with SN12C; 5.01 µM (inactive) with HCC 2998; 12.6 µM in the assay with HCT-15; 13 µM (inactive) in the assay on HOP-92; 15.6 µM (inactive) with SNB-75; 18.3 µM (inactive) with NCI-H226. In the assay with SF-295, the GI50 was 19.4 µM (inactive).
Turning to `O=[N+]([O-])c1c(F)c(F)c2c(c1F)Nc1ccccc1S2`, the GI50 in the assay on IGROV-1 was 3.08 µM (inactive); with NCI/ADR-RES it was 25.9 µM (inactive); in the assay with UACC-257 it was 1.49 µM (inactive); with SW-620, 2.77 µM (inactive); with K562, 2.87 µM (inactive); with MDA-MB-231 it was 2.27 µM (inactive). In addition, the GI50 with CCRF-CEM is 2.69 µM (inactive); with HCT-116 it was 2.47 µM (inactive); with ACHN, 15.7 µM (inactive); in the assay with RPMI-8226 it was 4.7 µM (inactive); in the assay with RXF 393, 2.25 µM (inactive); with BT-549 it was 11 µM (inactive). For the same molecule, the GI50 was 3.38 µM (inactive) with SN12C; 2.76 µM (inactive) in the assay on HCC 2998; 4.83 µM in the assay on HCT-15; 15.2 µM (inactive) in the assay with HOP-92; 17.3 µM (inactive) in the assay on SNB-75; 16.9 µM (inactive) in the assay with NCI-H226. For the same molecule, the GI50 in the assay on SF-295 was 17.3 µM (inactive).
Take `O=C(O)c1ccccc1C1CCCc2c1[nH]c1ccccc21` (stereo not given): the GI50 with IGROV-1 is 31.5 µM (inactive); in the assay with NCI/ADR-RES, 66.1 µM (inactive); in the assay with UACC-257, 69.7 µM (inactive); in the assay on SW-620, 57.1 µM (inactive); with K562 it was 34.6 µM (inactive); in the assay on MDA-MB-231 it was 37.3 µM (inactive). For the same molecule, the GI50 in the assay with CCRF-CEM was 20 µM (inactive); in the assay with HCT-116, 33.8 µM (inactive); with ACHN, 58.5 µM (inactive); with RPMI-8226 it was 28.8 µM (inactive); in the assay on RXF 393, 22.3 µM (inactive); in the assay with BT-549, 83.6 µM (inactive). Also, the GI50 was > 100 µM (inactive) in the assay with SN12C; > 100 µM (inactive) in the assay with HCC 2998; 44.4 µM with HCT-15; 24 µM (inactive) in the assay with HOP-92; 12.7 µM (inactive) in the assay with SNB-75; > 100 µM (inactive) in the assay on NCI-H226. For the same molecule, the GI50 with SF-295 was 57 µM (inactive).
For `Nc1ccc2n[se]nc2c1`, the GI50 with IGROV-1, in the assay with UACC-257, with SW-620, with K562, in the assay with CCRF-CEM and in the assay on HCT-116 was > 100 µM (inactive) throughout. For the same molecule, the GI50 in the assay with ACHN, in the assay on RPMI-8226, in the assay on RXF 393, in the assay on SNB-78, with SN12C and with HCC 2998 was > 100 µM (inactive) each time. Moreover, the GI50 is more than 100 µM in the assay with HCT-15, > 100 µM (inactive) in the assay on SNB-75 and > 100 µM (inactive) in the assay on SF-295.
Take `N#Cc1c(N)[nH]c2ccc(Sc3ccccc3)cc12`: the GI50 was 0.198 µM (active) in the assay on IGROV-1; 0.101 µM (active) in the assay with NCI/ADR-RES; 12.8 µM (inactive) in the assay with UACC-257; 0.121 µM (active) in the assay with SW-620; < 0.0635 µM (active) in the assay on K562; 0.881 µM (active) with MDA-MB-231. For the same molecule, the concentration for 50% growth inhibition (GI50) in the assay on CCRF-CEM was 0.151 µM (active); with HCT-116, 0.111 µM (active); in the assay with ACHN, 0.284 µM (active); in the assay with RPMI-8226, 0.361 µM (active); with RXF 393 it was 0.208 µM (active); in the assay with BT-549, 1.16 µM (inactive). Besides, the GI50 in the assay on SN12C is 0.574 µM (active); with HCC 2998 it was 0.516 µM (active); in the assay on HCT-15 it was 0.098 µM; with HOP-92, 1.78 µM (inactive); in the assay with SNB-75, 0.624 µM (active); in the assay with NCI-H226, 0.457 µM (active). The GI50 in the assay on SF-295 is 0.23 µM (active).
On to `C=C(CCC(=O)N(CCc1c[nH]c2ccccc12)C(=O)c1ccccc1CSCC)C(=O)OC`, for which the GI50 is 60.1 µM (inactive) in the assay with IGROV-1; 27.3 µM (inactive) with NCI/ADR-RES; 35.3 µM (inactive) in the assay with UACC-257; 49.9 µM (inactive) in the assay on SW-620; 5.66 µM (inactive) in the assay with K562; 30.1 µM (inactive) in the assay with MDA-MB-231. In addition, the GI50 is 5.4 µM (inactive) in the assay on CCRF-CEM; 7.19 µM (inactive) in the assay on HCT-116; 31.9 µM (inactive) with ACHN; 7.59 µM (inactive) in the assay with RPMI-8226; > 47.5 µM (inactive) in the assay on RXF 393; 71.9 µM (inactive) with BT-549. Further, the GI50 with SN12C was 30.3 µM (inactive); with HCC 2998, 43.7 µM (inactive); with HCT-15, 26.5 µM; with HOP-92, 40.6 µM (inactive); in the assay on SNB-75 it was > 83.8 µM (inactive); with NCI-H226, 53.7 µM (inactive). Besides, the GI50 in the assay on SF-295 was 24.7 µM (inactive).
Take `O=C1Cc2c(-c3ccccc3)cc(-c3ccc4ccccc4c3)nc2-c2ccccc2N1`: the GI50 in the assay on IGROV-1 is 1.93 µM (inactive); in the assay with NCI/ADR-RES, 13.2 µM (inactive); in the assay on UACC-257 it was 22.3 µM (inactive); in the assay with SW-620, 29.2 µM (inactive); with K562, 2.39 µM (inactive); with MDA-MB-231 it was 5.79 µM (inactive). The GI50 with CCRF-CEM was > 100 µM (inactive); in the assay on HCT-116 it was 8.45 µM (inactive); in the assay on ACHN it was 3.72 µM (inactive); with RPMI-8226, 17.7 µM (inactive); in the assay with RXF 393 it was 2.9 µM (inactive); in the assay on BT-549, 27.4 µM (inactive). Moreover, the GI50 was 6.22 µM (inactive) in the assay with SN12C; 22.6 µM (inactive) with HCC 2998; 37.8 µM in the assay with HCT-15; 4.05 µM (inactive) in the assay with HOP-92; 0.307 µM (active) in the assay on SNB-75; 8.45 µM (inactive) in the assay on NCI-H226. In the assay on SF-295, the GI50 was 17.8 µM (inactive).
Turning to `C/C=C(/C)C(=O)O[C@H]1[C@H](O)CC(c2ccc3c(c2O)C(=O)C2=C(O)C4(OC)C(=O)C(C(N)=O)=C(O)[C@H](CC(=O)c5ccccc5O)C4CC2[C@@]3(C)OC)O[C@@H]1C` (stereo not given in full), the GI50 with IGROV-1 is 0.00577 µM (active); with NCI/ADR-RES it was 8.43 µM (inactive); in the assay with UACC-257 it was 0.0165 µM (active); in the assay on SW-620, 0.00408 µM (active); in the assay with K562 it was 0.01 µM (active); in the assay with MDA-MB-231, 0.0078 µM (active). The GI50 is 0.0281 µM (active) with CCRF-CEM; 0.00121 µM (active) in the assay with HCT-116; 0.00418 µM (active) with ACHN; 0.00785 µM (active) in the assay with RPMI-8226; 0.0198 µM (active) with RXF 393; 0.0187 µM (active) with BT-549. In addition, the GI50 with SN12C is 0.00297 µM (active); in the assay on HCC 2998 it was 0.0326 µM (active); in the assay on HCT-15, 0.00507 µM; in the assay with HOP-92, 0.0218 µM (active); in the assay on SNB-75, 0.0198 µM (active); in the assay on NCI-H226 it was 0.0202 µM (active). Also, in the assay with SF-295, the GI50 was 0.017 µM (active).

As usually defined, the GI50 is the concentration that inhibits growth by half.
